Key:
[1] = tested on: rat paw edema evoked by egg white; assay: Egg white induced paw edema test in rats; assay type: in vivo; details: 8 mg/kg
Experimental: (§1) The anti-inflammatory effects of above extracts of the present invention were investigated in acute inflammatory models induced by either carrageenan or egg white.
(§2) Rats received a subplantar injection of carrageenan (0.1 ml of a 1% suspension in 0.85% saline; Sigma Chemical Co., St Louis, Mo., USA) or egg white (0.1 ml of a 10% solution in 0.85% saline) in the left hind paw. The total volume injected was 0.1 ml.
(§3) Indomethacin was administered to animals in the positive control group.
(§4) The volume of paw edema (in ml) was measured in each animal using a plethysmometer (Plethysmometer 7150, Ugo Basile, Italy) to a precision of two decimal places. The measurements were made immediately before and 2, 4, 6, 24 h after the carrageenan injection or 1, 2, 3, and 4 h after the injection of egg white. The swelling rate of paw was the percentage difference in paw volume and calculated by the following equation: Swelling rate (%)=(A−B)×100/B, where A represents the paw volume at different time points after injection, and B represents the paw volume before injection.
(§5) Values are presented as mean±SD.

[2] = tested on: rat paw edema evoked by carrageenan; assay: Carrageenan induced paw edema test in rats; assay type: in vivo; details: 10 mg/kg
Experimental: as §1, §2, §3, §4, §5

[3] = tested on: writhing activity of mice induced by acetic acid; assay: Acetic acid writhing test in mice; assay type: in vivo, ICR mice; details: one hour after administration; for The number of writhing episodes: mice
Experimental: In the writhing test, acetic acid is injected into the intraperitoneal cavity of mice. This induces acute inflammatory pain characterized by a contraction wave of abdominal musculature through stretching of the hind limbs that is called writhing, and the number of writhing episodes is evaluated.
Male and female ICR mice weighing 18 g to 25 g were fasted for one day before the test. […] The animals were then placed in individual 101×15 cm Plexiglas observation chambers for a 10-min acclimatization period. Acetic acid, 0.8% in 0.85% saline was injected i.p. into each mouse the animals were then returned into their respective transparent chambers.
The animals were then observed for a specific period (15 or 20 mins) and the number of writhing episodes was counted. For scoring purpose, a writhe was indicated by a contraction wave of abdominal musculature with simultaneous stretching of at least one hind limb.
as §5

Q: For C[C@@H]1C[C@H]2[C@@H]3CCC4=CC(=O)C=C[C@]4(C)[C@@]3(F)[C@@H](O)C[C@]2(C)[C@@]1(O)C(=O)CO [Dexamethasone], which “Swelling percentage of paw volume after stimulation (%) 1 hr” value ([1]; 1 hr) is on record?
A: 26.66 ± 3.34 %

Q: What about the “Swelling percentage of paw volume after stimulation (%) 2 hr” value ([1]; 2 hr) of the same molecule?
A: 19.31 ± 5.83 %

Q: What about the “Swelling percentage of paw volume after stimulation (%) 3 hr” value ([1]; 3 hr) of the same molecule?
A: 9.12 ± 4.42 %

Q: And the “Swelling percentage of paw volume after stimulation (%) 4 hr” value ([1]; 4 hr)?
A: 7.49 ± 4.08%

Q: How did the “inhibition of swelling evoked by carrageenan (in words)” value ([2]; positive control, not observed at 24 hrs after stimulation) turn out when COc1ccc2c(c1)c(CC(=O)O)c(C)n2C(=O)c1ccc(Cl)cc1 [Indomethacin] was run?
A: inhibited the swelling within 7 hrs after drug administration

Q: What about the “Percentage change in swelling after injecting carrageenan (%) 2 hour” value ([2]; rat, 2 hour) of the same molecule?
A: 12.27 ± 4.61 %

Q: What about the “Percentage change in swelling after injection of carrageenan (%) 2 hour” value ([2]; rat, 2 hour (Table 13)) of the same molecule?
A: 12.27 ± 4.61 %

Q: What about the “Percentage change in swelling after injecting carrageenan (%) 4 hour” value ([2]; rat, 4 hour) of the same molecule?
A: 15.12 ± 7.85 %

Q: And the “Percentage change in swelling after injection of carrageenan (%) 4 hour” value ([2]; rat, 4 hour (Table 13))?
A: 15.12 ± 7.85 %

Q: And the “Percentage change in swelling after injecting carrageenan (%) 6 hour” value ([2]; rat, 6 hour)?
A: 15.32 ± 7.84 %

Q: And the “Percentage change in swelling after injection of carrageenan (%) 6 hour” value ([2]; rat, 6 hour (Table 13))?
A: 15.32 ± 7.84 %

Q: And the “Percentage change in swelling after injecting carrageenan (%) 24 hour” value ([2]; rat, 24 hour)?
A: 35.36 ± 14.65%

Q: What about the “Percentage change in swelling after injection of carrageenan (%) 24 hour” value ([2]; rat, 24 hour (Table 13)) of the same molecule?
A: 35.36 ± 14.65%

Q: Which “The number of writhing episodes” value ([3]; 0.0375 g/kg) does the source give for COC1=C[C@@H]2[C@@H]3Cc4ccc(OC)c(O)c4[C@]2(CCN3C)CC1=O [Sinomenine] here?
A: 25 ± 9

Q: And the “inhibition to the writhing activity of mice induced by acetic acid (in words)” value ([3]; tetrahydropalmatine 0.09 g/kg, sinomenine 0.0375 g/kg, capsule 12.7 g/kg and 25.50 g/kg)?
A: significant compared to control group

Q: COc1cc2c(cc1OC)[C@@H]1Cc3ccc(OC)c(OC)c3CN1CC2 [Tetrahydropalmatine] was tested. Which “The number of writhing episodes” value ([3]; 0.090 g/kg) did it give?
A: 11 ± 6

Reference: patent US20060110468A1, “Herbal formulations for arthritis” (priority 2004, published 2006)
